Experiment [1] relates to Male Dunkin Hartley guinea pigs. Put plainly: Simple citric acid cough model. The experiment is classed as in vivo. Conditions: guinea pig; for Average cough times: 17.5% citric acid. Here is the method:
Male Dunkin Hartley guinea pigs (300-350 g) were placed in an animal atomization box, and then the door of the atomization box was closed while the ultrasonic atomizer (Guangdong Yuehua) was turned on. 17.5% citric acid gas was introduced into the atomization box at a maximum atomization rate (about 2 mL/min) for 20 s, and coughs of the animals within 10 min were continuously observed from the time of the start of atomization. During the 10-min observation, coughs of the animals needed to be counted manually, and the number of coughs were judged according to cough postures of the guinea pigs, such as abdominal twitching, mouth opening, and head inclining downward abruptly. The number of coughs during the first 5 min and that during 10 min were recorded, and the cough latency of the guinea pigs, namely the time from the initiation of citric acid induction to the appearance of the 1st cough, was also recorded.

The target in experiment [2] is T1, hP2X4 (human purinergic P2X receptor subtype 4) (Homo sapiens, UniProt Q99571).
T1 sequence (Q99571 1-404 isoform Q99571-2): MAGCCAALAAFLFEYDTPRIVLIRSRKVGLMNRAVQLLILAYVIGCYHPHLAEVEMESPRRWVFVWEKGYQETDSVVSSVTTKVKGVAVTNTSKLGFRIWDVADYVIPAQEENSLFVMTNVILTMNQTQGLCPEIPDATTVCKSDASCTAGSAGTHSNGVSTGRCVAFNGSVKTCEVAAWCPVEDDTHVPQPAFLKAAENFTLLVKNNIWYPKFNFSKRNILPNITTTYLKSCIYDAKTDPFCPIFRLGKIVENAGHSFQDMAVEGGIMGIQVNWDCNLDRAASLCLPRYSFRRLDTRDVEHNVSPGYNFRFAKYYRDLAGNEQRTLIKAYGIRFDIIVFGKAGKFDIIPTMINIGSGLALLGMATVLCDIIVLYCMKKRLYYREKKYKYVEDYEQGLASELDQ
Conditions: P2X4 IC50 (nM), HEK293 cells stably expressing hP2X4; agonist BZ-ATP 2.5 μM; FLIPR calcium.

Setting [3] is: 60 mg/kg group, before administration.
The mark [4] stands for this setting: citric acid, 20 mg/kg and 60 mg/kg, dose-dependent, vs vehicle group or before administration.

Consider `COc1ccc2c(c1)[C@]13CCCC[C@@H]1[C@H](C2)N(C)CC3` [Dextromethorphan, dextromethorphan, reference compound], for which the Average cough times in experiment [1] (setting [3]) was determined as 19.70; in experiment [1] (60 mg/kg, after administration) it was 11.20. The “Cough inhibition rate Vs basic value (%)” value in experiment [1] (citric acid, 60 mg/kg) turned out to be 43.15%. In addition, the “Cough inhibition rate Vs vehicle (%)” value in experiment [1] (citric acid, 60 mg/kg) was determined as 38.54%.
The term IC50 denotes the point on the concentration scale where inhibition reaches its midpoint. Take `COc1nccc2c(S(N)(=O)=O)cc(NC(=O)Cc3ccccc3Cl)cc12` [Compound 1, 2-(2-chlorophenyl)-N-(1-methoxy-5-sulfamoylisoquinolin-7-yl)acetamide]: the Average cough times in experiment [1] (20 mg/kg group, before administration) is listed as 19.00; in experiment [1] (20 mg/kg, after administration), 11.22; in experiment [1] (setting [3]) it was 19.40; in experiment [1] (60 mg/kg, after administration) it was 10.50; in experiment [1] (100 mg/kg group, before administration), 19.90; in experiment [1] (100 mg/kg, after administration), 8.60. Besides, the “Cough inhibition rate Vs basic value (%)” value in experiment [1] (citric acid, 20 mg/kg) is recorded as 40.94%; in experiment [1] (citric acid, 60 mg/kg), 45.88%; in experiment [1] (citric acid, 100 mg/kg) it was 56.78%. Moreover, the “Cough inhibition rate Vs vehicle (%)” value in experiment [1] (citric acid, 20 mg/kg) worked out at 38.41%; in experiment [1] (citric acid, 60 mg/kg) it was 42.38%; in experiment [1] (citric acid, 100 mg/kg) it was 52.80%. Further, the cough latency entry in experiment [1] (setting [4]) is on record as “prolong the cough latency”. Further, the number of coughs result in experiment [1] (setting [4]) is “reduce the number of coughs”. Also, in experiment [1] (citric acid, 60 mg/kg), the “drug effect compared with dextromethorphan at the same dosage” value is “no significant difference in the drug effect compared with the positive compound dextromethorphan”. Besides, the IC50 in experiment [2] is less than 10 nM.
As to `COc1nccc2c(S(N)(=O)=O)cc(NC(=O)Cc3c(Cl)cccc3Cl)cc12` [Compound 91, 2-(2,6-dichlorophenyl)-N-(1-methoxy-5-sulfamoylisoquinolin-7-yl)acetamide], in experiment [2], the concentration for half-maximal inhibition (IC50) lay within 200 to 5000 nM.
Same read-out and setting: under `NS(=O)(=O)c1cc(NC(=O)Cc2ccccc2Cl)cc2c(C3CC3)nccc12` [Compound 23, 2-(2-chlorophenyl)-N-(1-cyclopropyl-5-sulfamoylisoquinolin-7-yl)acetamide] stands less than 10 nM; under `NS(=O)(=O)c1cc(NC(=O)Cc2ccccc2Cl)cc2cncc(F)c12` [Compound 18, 2-(2-chlorophenyl)-N-(4-fluoro-5-sulfamoylisoquinolin-7-yl)acetamide], 50 to 200 nM; under `NS(=O)(=O)c1cc(NC(=O)Cc2ccccc2Cl)cc2c(CF)nccc12` [Compound 56], 50 to 200 nM.
On to `Cc1ccc(Oc2nccc3c(S(N)(=O)=O)cc(NC(=O)Cc4ccccc4Cl)cc23)cc1` [Compound 34, 2-(2-chlorophenyl)-N-(5-sulfamoyl-1-(p-tolyloxy)isoquinolin-7-yl)acetamide], for which, in experiment [2], the concentration for half-maximal inhibition (IC50) lay within 10 to 50 nM.
Same read-out and setting: the value for `NS(=O)(=O)c1cc(NC(=O)Cc2ccccc2Cl)cc2cnc(OCCO)cc12` [Compound 76, 2-(2-chlorophenyl)-N-(3-(2-hydroxyethoxy)-5-sulfamoylisoquinolin-7-yl)acetamide] was 50 to 200 nM; that for `CC(C)Nc1ccc2c(S(N)(=O)=O)cc(NC(=O)Cc3ccccc3Cl)cc2n1` [Compound 73, 2-(2-chlorophenyl)-N-(2-(isopropylamino)-5-sulfamoylquinolin-7-yl)acetamide] was 200 to 5000 nM.
The same measure, in the same setting: the value for `COc1nccc2c(S(N)(=O)=O)cc(NC(=O)Cc3c(O)cccc3Cl)cc12` [Compound 62, 2-(2-chloro-6-hydroxyphenyl)-N-(1-methoxy-5-sulfamoylisoquinolin-7-yl)acetamide] was 200 to 5000 nM; that for `NS(=O)(=O)c1cc(NC(=O)Cc2ccccc2Cl)cc2c(OCC3CC3)nccc12` [Compound 16] was 10 to 50 nM.
Same read-out and setting: the value for `NS(=O)(=O)c1cc(NC(=O)Cc2ccccc2Cl)cc2c(Oc3ccccc3)nccc12` [Compound 30, 2-(2-chlorophenyl)-N-(1-phenoxy-5-sulfamoylisoquinolin-7-yl)acetamide] was 10 to 50 nM.
Take `COc1nccc2c(S(N)(=O)=O)cc(NC(=O)Cc3c(Cl)ccc(F)c3F)cc12` [Compound 54, 2-(6-chloro-2,3-difluorophenyl)-N-(1-methoxy-5-sulfamoylisoquinolin-7-yl)acetamide]: the IC50 in experiment [2] lay within 200 to 5000 nM.
Still for that read-out and setting: under `NS(=O)(=O)c1cc(NC(=O)Cc2ccccc2Cl)cc2c1CCN(C(=O)OC1CC1)C2` [Compound 101, cyclopropyl-7-(2-(2-chlorophenyl)acetamido)-5-sulfamoyl-3,4-dihydroisoquinoline-2(1H)-carboxylate] stands 10 to 50 nM.
On the same count and under the same terms, under `COC(=O)N1CCCc2c1cc(NC(=O)Cc1ccccc1Cl)cc2S(N)(=O)=O` [Compound 46, methyl 7-(2-(2-chlorophenyl)acetamido)-5-sulfamoyl-3,4-dihydroquinoline-1(2H)-carboxylate] stands 200 to 5000 nM.
Consider `N#Cc1ccc2cc(NC(=O)Cc3ccccc3Cl)cc(S(N)(=O)=O)c2c1` [Compound 42, 2-(2-chlorophenyl)-N-(6-cyano-4-sulfamoylnaphthalen-2-yl)acetamide], for which the IC50 in experiment [2] was in the range of 10 to 50 nM.
Regarding `NS(=O)(=O)c1cc(NC(=O)Cc2ccc(F)cc2Cl)cc2c1CCN(c1ccc(F)cn1)C2` [Compound 122], the IC50 in experiment [2] lay in the range of 200 to 5000 nM.

The values are drawn from patent publication US12692235B2, “Fused ring compound and application thereof” (WUHAN LL SCIENCE AND TECHNOLOGY DEVELOPMENT CO., LTD., priority 2019, dated 2026).
